The text below walks through data of BindingDB's records for patent US20250034165 (Chia Tai Tianqing Pharmaceutical Group, 2025).

As usually defined, the IC50 is the midpoint of a concentration-inhibition curve. High values mean a need for much substance, low ones inhibition by little substance.

Assay [1] has as its target Epidermal growth factor receptor (Homo sapiens, UniProt P00533). Description: Inhibitory Activity for EGFR (WT) Kinase. The method, then: A 50 ng/μL EGFR (WT, Carna) stock solution was diluted with a kinase buffer (50 mM HEPES, 10 mM MgCl2, 2 mM DTT, 1 mM EGTA, 0.01% Tween 20), and 6 μL of 1.67× working solution at 0.005 ng/μL (final concentration: 0.003 ng/μL) was added to each well. Different compounds dissolved in DMSO were added to the wells using a nanoliter pipettor, resulting in the final concentrations of the compounds of 100 nM to 0.0244 nM (4-fold gradient for 7 concentrations in total), and blank control wells (without enzyme) and negative control wells (with enzyme, plus vehicle DMSO) were set, 2 replicate wells for each concentration. After enzyme was reacted with the compound or vehicle for 30 min, 5×ATP at 25 μM (final concentration: 5 μM, Sigma) prepared with a kinase buffer was mixed with 5× substrate at 0.5 μM (final concentration: 0.1 μM, ULight-poly GT, PerkinElmer) at a ratio of 1:1 (v:v), and the mixture was added to each well at 4 μL/well. After being sealed with a film, the plate was incubated at room temperature for 2 h, and then 5 μL of 4×EDTA at 40 mM (final concentration: 10 mM) was added to each well. After the plate was incubated for 5 min at room temperature, 5 μL of 4× detection reagent at 8 nM (final concentration: 2 nM, Eu-anti-phospho-tyrosine antibody, PerkinElmer) was added to each well.

The target of assay [2] is Epidermal growth factor receptor [T790M,C797S,L858R] (UniProt P00533, C797S/L858R/T790M). Put plainly: Inhibitory Activity for EGFR (L858R/T790M/C797S) Kinase. As for the experimental part: (§1) A 50 ng/μL EGFR (L858R/T790M/C797S, BPS) stock solution was diluted with a kinase buffer (50 mM HEPES, 10 mM MgCl2, 2 mM DTT, 1 mM EGTA, 0.01% Tween 20), and 6 μL of 1.67× working solution at 0.00167 ng/μL (final concentration: 0.001 ng/μL) was added to each well. Different compounds dissolved in DMSO were added to wells using a nanoliter pipettor, resulting in the final concentrations of the compounds of 10 nM to 0.0024 nM (4-fold gradient, 7 concentrations in total), and blank control wells (without enzyme) and negative control wells (with enzyme, plus vehicle DMSO) were set, 2 replicate wells for each concentration. After enzyme was reacted with the compound or vehicle for 30 min, 5×ATP at 25 μM (final concentration: 5 μM, Sigma) prepared with a kinase buffer was mixed with 5× substrate at 0.5 μM (final concentration: 0.1 μM, ULight-poly GT, PerkinElmer) at a ratio of 1:1 (v:v), and the mixture was added to each well at 4 μL/well. After being sealed with a film, the plate was incubated at room temperature for 2 h, and then 5 μL of 4×EDTA at 40 mM (final concentration: 10 mM) was added to each well. After the plate was incubated for 5 min at room temperature, 5 μL of 4× detection reagent at 8 nM (final concentration: 2 nM, Eu-anti-phospho-tyrosine antibody, PerkinElmer) was added to each well. After being incubated at room temperature for 1 h, the plate was read using a PerkinElmer Envision multi-mode microplate reader (excitation: 320 nm, emission: 665 nm), and IC50 was calculated by four-parameter fitting.

In assay [3] the target is Epidermal growth factor receptor (EGFR)(L858R)(T790M) (Homo sapiens, UniProt P00533, L858R/T790M). Description: Inhibitory Activity for EGFR (L858R/T790M) Kinase. The method, then:
as §1, with “(L858R/T790M, Carna)” for “(L858R/T790M/C797S, BPS)”, “0.004175” for “0.00167”, “0.0025” for “0.001”

Epidermal growth factor receptor (EGFR)(L858R)(T790M), sequence (P00533 25-1210 T790M/L858R limits assumed): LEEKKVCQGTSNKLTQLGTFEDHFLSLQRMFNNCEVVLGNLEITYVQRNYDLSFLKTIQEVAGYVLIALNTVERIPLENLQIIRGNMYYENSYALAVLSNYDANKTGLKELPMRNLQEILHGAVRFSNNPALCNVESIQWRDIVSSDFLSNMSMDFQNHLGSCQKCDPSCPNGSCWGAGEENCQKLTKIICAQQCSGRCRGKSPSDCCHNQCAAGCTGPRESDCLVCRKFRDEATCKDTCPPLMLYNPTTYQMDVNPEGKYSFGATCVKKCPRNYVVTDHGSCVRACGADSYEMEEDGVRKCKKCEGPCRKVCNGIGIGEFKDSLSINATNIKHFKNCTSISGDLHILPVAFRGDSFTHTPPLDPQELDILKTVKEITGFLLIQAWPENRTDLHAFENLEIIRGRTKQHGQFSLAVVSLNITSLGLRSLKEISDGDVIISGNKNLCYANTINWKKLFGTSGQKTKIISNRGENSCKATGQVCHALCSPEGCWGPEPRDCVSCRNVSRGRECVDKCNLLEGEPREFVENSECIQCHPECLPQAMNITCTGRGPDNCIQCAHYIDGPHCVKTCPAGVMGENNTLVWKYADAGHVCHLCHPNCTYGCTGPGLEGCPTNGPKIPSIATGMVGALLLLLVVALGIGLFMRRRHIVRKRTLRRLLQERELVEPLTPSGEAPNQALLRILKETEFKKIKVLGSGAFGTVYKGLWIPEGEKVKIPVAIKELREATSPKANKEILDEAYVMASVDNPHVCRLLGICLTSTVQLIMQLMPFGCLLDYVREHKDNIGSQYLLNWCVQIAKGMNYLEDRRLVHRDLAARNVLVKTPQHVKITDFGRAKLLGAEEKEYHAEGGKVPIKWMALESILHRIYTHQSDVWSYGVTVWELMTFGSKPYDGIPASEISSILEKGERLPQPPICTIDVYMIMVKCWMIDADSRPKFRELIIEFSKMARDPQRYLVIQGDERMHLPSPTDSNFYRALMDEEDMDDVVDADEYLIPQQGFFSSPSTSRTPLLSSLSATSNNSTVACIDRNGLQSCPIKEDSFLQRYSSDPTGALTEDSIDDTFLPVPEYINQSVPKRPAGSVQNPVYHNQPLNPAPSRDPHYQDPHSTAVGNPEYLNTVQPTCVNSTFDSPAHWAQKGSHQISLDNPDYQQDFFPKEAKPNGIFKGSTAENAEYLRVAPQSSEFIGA
Epidermal growth factor receptor, sequence (P00533 whole entry): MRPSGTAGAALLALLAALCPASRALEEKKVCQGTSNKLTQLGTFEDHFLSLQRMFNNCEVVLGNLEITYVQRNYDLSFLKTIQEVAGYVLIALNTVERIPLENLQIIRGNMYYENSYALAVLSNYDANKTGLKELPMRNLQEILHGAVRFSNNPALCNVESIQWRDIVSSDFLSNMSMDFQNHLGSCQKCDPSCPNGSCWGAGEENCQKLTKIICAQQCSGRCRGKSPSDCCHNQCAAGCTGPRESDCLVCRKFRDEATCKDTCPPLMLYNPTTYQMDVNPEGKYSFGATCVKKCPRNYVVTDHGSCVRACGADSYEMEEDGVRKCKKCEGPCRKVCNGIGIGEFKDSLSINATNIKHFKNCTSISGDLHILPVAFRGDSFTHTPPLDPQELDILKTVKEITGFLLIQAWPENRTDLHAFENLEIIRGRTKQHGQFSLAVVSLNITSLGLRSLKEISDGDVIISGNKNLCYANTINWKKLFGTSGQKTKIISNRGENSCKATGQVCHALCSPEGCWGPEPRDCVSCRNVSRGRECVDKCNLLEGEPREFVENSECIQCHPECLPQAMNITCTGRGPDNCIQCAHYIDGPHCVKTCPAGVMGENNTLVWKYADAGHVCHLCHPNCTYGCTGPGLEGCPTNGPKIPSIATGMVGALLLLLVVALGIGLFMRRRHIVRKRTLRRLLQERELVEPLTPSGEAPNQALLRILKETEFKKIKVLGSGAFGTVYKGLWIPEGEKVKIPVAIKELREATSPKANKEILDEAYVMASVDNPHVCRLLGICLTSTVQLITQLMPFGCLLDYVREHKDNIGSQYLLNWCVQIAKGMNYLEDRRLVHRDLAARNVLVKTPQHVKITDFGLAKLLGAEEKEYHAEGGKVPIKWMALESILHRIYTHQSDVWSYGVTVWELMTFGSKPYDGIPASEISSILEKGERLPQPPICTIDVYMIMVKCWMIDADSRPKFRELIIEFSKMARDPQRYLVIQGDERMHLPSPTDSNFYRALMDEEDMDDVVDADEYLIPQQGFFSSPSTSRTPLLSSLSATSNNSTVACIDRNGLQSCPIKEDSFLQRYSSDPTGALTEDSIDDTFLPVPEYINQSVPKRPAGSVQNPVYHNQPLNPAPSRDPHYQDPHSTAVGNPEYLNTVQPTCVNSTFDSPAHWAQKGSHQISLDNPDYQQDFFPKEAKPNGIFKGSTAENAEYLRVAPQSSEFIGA
Epidermal growth factor receptor [T790M,C797S,L858R], sequence (P00533 25-1210 T790M/C797S/L858R limits assumed): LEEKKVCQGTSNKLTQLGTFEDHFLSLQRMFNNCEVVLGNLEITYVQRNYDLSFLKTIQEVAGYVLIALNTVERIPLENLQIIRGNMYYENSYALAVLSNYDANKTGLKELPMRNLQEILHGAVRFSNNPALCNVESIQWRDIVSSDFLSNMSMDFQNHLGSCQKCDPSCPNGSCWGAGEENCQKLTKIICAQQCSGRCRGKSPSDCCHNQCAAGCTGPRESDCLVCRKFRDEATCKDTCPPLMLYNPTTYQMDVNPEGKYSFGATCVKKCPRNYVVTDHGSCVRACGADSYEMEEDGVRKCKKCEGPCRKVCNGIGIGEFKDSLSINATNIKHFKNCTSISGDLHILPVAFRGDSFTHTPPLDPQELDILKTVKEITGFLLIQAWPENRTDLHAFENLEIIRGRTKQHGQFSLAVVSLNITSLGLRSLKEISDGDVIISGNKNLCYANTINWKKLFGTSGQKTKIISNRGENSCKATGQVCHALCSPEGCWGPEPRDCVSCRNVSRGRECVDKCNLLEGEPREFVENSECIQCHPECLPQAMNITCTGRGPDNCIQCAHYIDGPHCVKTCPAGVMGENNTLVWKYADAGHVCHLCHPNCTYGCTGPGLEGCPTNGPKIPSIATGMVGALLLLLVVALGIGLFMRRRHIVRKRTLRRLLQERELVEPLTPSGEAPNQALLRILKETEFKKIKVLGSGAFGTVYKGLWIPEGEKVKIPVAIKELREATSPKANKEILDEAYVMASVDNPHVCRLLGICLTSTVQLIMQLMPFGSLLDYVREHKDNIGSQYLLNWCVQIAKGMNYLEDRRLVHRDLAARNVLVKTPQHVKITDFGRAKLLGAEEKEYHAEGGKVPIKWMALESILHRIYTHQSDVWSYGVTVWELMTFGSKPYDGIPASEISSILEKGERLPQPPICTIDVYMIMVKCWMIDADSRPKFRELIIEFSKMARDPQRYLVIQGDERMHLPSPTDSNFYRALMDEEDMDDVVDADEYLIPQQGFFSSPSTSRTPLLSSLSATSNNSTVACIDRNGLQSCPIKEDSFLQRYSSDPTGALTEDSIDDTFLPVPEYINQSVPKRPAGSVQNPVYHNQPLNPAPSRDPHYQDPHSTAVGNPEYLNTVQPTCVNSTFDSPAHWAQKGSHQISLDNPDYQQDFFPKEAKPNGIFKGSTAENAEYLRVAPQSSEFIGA

As for `Cc1cc2cc(n1)-c1cnn(C)c1OCCC[C@@H](C1CC1)CN1/C(=N/C2=O)Nc2cc(NC[C@H]3COCCO3)ccc21` [US20250034165, Example 19], the half-inhibitory concentration (IC50) in assay [1] was determined as 1.8 nM; in assay [2] it was 0.035 nM. With `Cc1cc2cc(n1)-c1cnn(C)c1OCCC[C@@H](C1CC1)CN1/C(=N/C2=O)Nc2ccc(NC3CCN(C)CC3)cc21` [US20250034165, Example 20], the IC50 was determined as 0.2 nM in assay [1] and 0.016 nM in assay [3]. Consider `Cc1cc2cc(n1)-c1cnn(C)c1OCCC[C@@H](C1CC1)CN1/C(=N/C2=O)Nc2cc(N[C@@H]3CCOC3)ccc21` [US20250034165, Example 43], for which the IC50 in assay [1] came to 1.2 nM; in assay [2] it was 0.039 nM.

On to `Cc1cc2cc(n1)-c1cnn(C)c1OCCC[C@@H](C1CC1)CN1/C(=N/C2=O)Nc2ccc(NCCN)cc21` [US20250034165, Example 58], for which the half-inhibitory concentration (IC50) in assay [1] stood at 0.51 nM; in assay [3], 0.012 nM. Regarding `Cc1cc2cc(n1)-c1cnn(C)c1OCCC[C@@H](C1CC1)CN1/C(=N/C2=O)Nc2cc(NCCN3CCOCC3)ccc21` [US20250034165, Example 3], the IC50 in assay [1] worked out at 0.864 nM; in assay [2], 0.022 nM. Take `Cc1cc2cc(n1)-c1cnn(C)c1OCCC[C@@H](C1CC1)CN1/C(=N/C2=O)Nc2ccc(NC(C)CN(C)C)cc21` (stereo partly drawn) [US20250034165, Example 63]: the IC50 is 0.33 nM in assay [1] and 0.009 nM in assay [3]. Taken in the same sequence, the figures for `Cc1cc2cc(n1)-c1cnn(C)c1OCCC[C@@H](C1CC1)CN1/C(=N/C2=O)Nc2ccc(NCCCN3CCCC3)cc21` [US20250034165, Example 84] were 1.2 nM and 0.1 nM. Taken in the same sequence, the figures for `Cc1cc2cc(n1)-c1cnn(C)c1OCCC[C@@H](C1CC1)CN1/C(=N/C2=O)Nc2cc(NC3CCN(C(C)C)CC3)ccc21` [US20250034165, Example 47] were 0.55 nM and 0.023 nM.

As to `Cc1cc2cc(n1)-c1cnn(C)c1OCCC[C@@H](C1CC1)CN1/C(=N/C2=O)Nc2ccc(NCCN(C)C)cc21` [US20250034165, Example 28], in assay [1], half-maximal inhibition (IC50) required 0.45 nM. For the compound `Cc1cc2cc(n1)-c1cnn(C)c1OCCC[C@@H](C1CC1)CN1/C(=N/C2=O)Nc2cc(NCCCCN(C)C)ccc21` [US20250034165, Example 51], the IC50 stood at 1.8 nM in assay [1] and 0.017 nM in assay [3]. Regarding `Cc1cc2cc(n1)-c1cnn(C)c1OCCC[C@@H](C1CC1)CN1/C(=N/C2=O)Nc2cc(NC3CN(C)C3)ccc21` [US20250034165, Example 33], the half-inhibitory concentration (IC50) in assay [1] worked out at 0.47 nM; in assay [2], 0.012 nM.

With `Cc1cc2cc(n1)-c1cnn(C3CC3)c1OCCC[C@@H](C)CN1/C(=N/C2=O)Nc2ccc(N3CC[C@H](O)C3)cc21` [US20250034165, Example 16], the values for the IC50 in assay [1] and in assay [2] were 3.4 nM and 0.12 nM, respectively. Taken in the same sequence, the figures for `Cc1cc2cc(n1)-c1cnn(C)c1OCCC[C@@H](C1CC1)CN1/C(=N/C2=O)Nc2cc(NC3(C)CNC3)ccc21` [US20250034165, Example 34] were 0.4 nM and 0.028 nM. Taken in the same sequence, the figures for `Cc1cc2cc(n1)-c1cnn(C)c1OCCC[C@@H](C1CC1)CN1/C(=N/C2=O)Nc2cc(N[C@@H]3CCCOC3)ccc21` [US20250034165, Example 18] were 1.7 nM and 0.051 nM. As to `Cc1cc2cc(n1)-c1cnn(C)c1OCCC[C@@H](C1CC1)CN1/C(=N/C2=O)Nc2cc(NCCCN)ccc21` [US20250034165, Example 50], the half-inhibitory concentration (IC50) in assay [1] was determined as 1.3 nM; in assay [2] it was 0.066 nM. In the case of `Cc1cc2cc(n1)-c1cnn(C)c1OCCC[C@@H](C1CC1)CN1/C(=N/C2=O)Nc2ccc(NCCN3CCCC3)cc21` [US20250034165, Example 82], the values for the concentration for half-maximal inhibition (IC50) in assay [1] and in assay [2] were 0.58 nM and 0.014 nM, respectively. In the same order, the values of `Cc1cc2cc(n1)-c1cnn(C)c1OCCC[C@@H](C1CC1)CN1/C(=N/C2=O)Nc2ccc(N3CC[C@H](O)C3)cc21` [US20250034165, Example 21] are 2.4 nM and 0.075 nM.
